1 compound from US20250144099A1, “INK4 TUMOR SUPPRESSOR PROTEINS MEDIATE RESISTANCE TO CDK4/6 KINASE INHIBITORS” (MEMORIAL SLOAN-KETTERING CANCER CENTER, priority 2021, published 2025) can be followed below.

Each structure is given as a SMILES string. “Also recorded” adds a separate entry of the source.

The test system of experiment [1] is CDK6-high (FAT-1 loss) tumors. Put plainly: Pharmacodynamic study in tumor-bearing mice (immunoblotting of tumors). It counts as in vivo, NSG mice. The conditions noted are these: 25 mg/kg i.p., 3 consecutive days, tumors collected at 6 h. As to the method: Pharmacodynamic study. NOD.Cg-Prkdc Il2rg<tm1Wjl>/SzJ (NSG) mice were obtained from the Jackson Laboratory (Stock #: 005557). Each mouse was injected with FAT1 loss cells subcutaneously 1 week after the implantation of estradiol pellets (25 mg). After the tumors reached 200 mm^3, mice were treated for 3 consecutive days with BSJ-05-017 at 25 mg/kg. Tumors were collected at 6 h. Lysates were prepared by homogenization in SDS-lysis buffer (˜1 ml/mg tissue) (50 mM Tris-HCl pH 7.4, 2% SDS) and boiled for 10 min, followed by brief sonication as described previously (65). Lysates were cleared by centrifugation at 14,000 g for 10 min and the supernatant was collected for western blotting.
(A western blot detects proteins with antibodies after separation by electrophoresis.)

The test system of experiment [2] is MCF-7 CDK6-high cells (FAT1 loss). Put plainly: Cell viability assay (Resazurin). As to conditions: day 7. It counts as cell-based, human. As to the method:
(§1) Cell viability was measured by Resazurin (R&D Systems, Minneapolis, MN, USA) as described previously (51). Briefly, 1,500 cells were seeded in a 96-well plate and allowed to recover overnight. Cells were treated with drugs at day 0. Resazurin was added to the cells 4 hours prior to the measurements on day 3, day 5 and day 7. Fluorescent intensity was measured using a microplate reader (SpectraMax M5, Molecular Devices, Sunnyvale, CA, USA). IC50 was calculated by GraphPad Prism 7.0 using a sigmoidal regression model.
On the technique in general: Alamar Blue is a resazurin reagent that responds to reducing activity.

The next experiment deals with MCF-7 parental cells. Briefly: Cell viability assay (Resazurin). Type of experiment: cell-based, human. The conditions noted are these: day 7. As to the method:
as §1

For experiment [3], the system named is CDK6-overexpressing xenografts. Briefly: Efficacy study, cell-derived xenograft. It counts as in vivo, NSG mice. The conditions noted are these: BSJ-05-017 50 mg/kg i.p., BSJ-03-096 50 mg/kg p.o., 25-35 days. As to the method: (§2) Efficacy study. NOD.Cg-Prkdc Il2rg<tm1Wjl>/SzJ (NSG) mice were obtained from the Jackson Laboratory (Stock #: 005557). Each mouse was injected with MCF7 parental, CDK6-ovexpressing or PTEN loss cells subcutaneously 1 week after the implantation of estradiol pellets (25 mg). […] Tumor volumes were recorded every 3-4 days. Mice were sacrificed if tumors reached 1000 mm^3 or at the end of the experiment. Tumors were collected and processed as described above.

In experiment [4] the test system is shPTEN (PTEN loss) xenografts. Briefly: Efficacy study, cell-derived xenograft. The conditions noted are these: BSJ-05-017 50 mg/kg i.p., BSJ-03-096 50 mg/kg p.o., 25-35 days. It counts as in vivo, NSG mice. As to the method:
as §2

The subject of experiment [5] is MCF7 parental cell-derived xenografts. Put plainly: Efficacy study, cell-derived xenograft. Type of experiment: in vivo, NSG mice. The conditions noted are these: ribociclib 25 mg/kg p.o., BSJ-05-017 50 mg/kg i.p., BSJ-03-096 50 mg/kg p.o., 25-35 days. As to the method:
as §2

The subject of a further experiment is MOLT4 cells. Put plainly: Global quantitative mass spectrometry proteomics. Type of experiment: cell-based, human. As to conditions: 250 nM, 5 h. As to the method: Molt4 cells were treated with 250 nM of compounds BSJ-05-017 or BSJ-03-096 (singlicate) or DMSO control (biological triplicate) for 5 hours. Cells were harvested by centrifugation and prepared for mass spectrometry as described previously (28). Data were collected as reported (28). LC-MS data were analyzed using Proteome Discoverer 2.4 (Thermo Fisher Scientific), as previously described (28). Reporter ion intensities were normalized and scaled using in-house scripts in the R framework (63). Statistical analysis was carried out using the limma package within the R framework (64).

The subject of experiment [6] is T47D parental and CDK6-overexpressing cells. Put plainly: Cell proliferation assay. As to conditions: recorded at day 3, day 5 and day 7. It counts as cell-based, human. As to the method:
as §1

As to `CC(=O)c1c(C)c2cnc(Nc3ccc(N4CCN(CCCCC(=O)N[C@H](C(=O)N5C[C@H](O)C[C@H]5C(=O)N[C@@H](C)c5ccc(-c6scnc6C)cc5)C(C)(C)C)CC4)cn3)nc2n(C2CCCC2)c1=O` [BSJ-05-017, (2S,4R)-1-((S)-2-(5-(4-(6-((6-acetyl-8-cyclopentyl-5-methyl-7-oxo-7,8-dihydropyrido[2,3-d]pyrimidin-2-yl)amino)pyridin-3-yl)piperazin-1-yl)pentanamido)-3,3-dimethylbutanoyl)-4-hydroxy-N—((S)-1-(4-(4-methylthiazol-5-yl)phenyl)ethyl)pyrrolidine-2-carboxamide], in experiment [1], the “Rb1 phosphorylation and E2F1 expression in tumors” value is “significant suppression of Rb1 phosphorylation and E2F1 expression”. The “degradation of CDK4 and CDK6 in tumors” value in experiment [1] is “near complete degradation of CDK4 and CDK6”. Further, the “inhibition of cell growth” value in experiment [2] is “equal potency; also recorded: equipotent in suppressing proliferation”; in the experiment with MCF-7 parental cells, “equal potency; also recorded: equipotent in suppressing proliferation”; in experiment [6] it was “inhibits the growth of both T47D parental and CDK6-overexpressing cells”. Also, the “durable tumor inhibition (percent)” value is −64.9% in experiment [3] and about 47.4% in experiment [4]. Also, the tumor response result in experiment [5] was “sensitive”. Moreover, the “selectivity in global proteomics” value in the experiment with MOLT4 cells is “highly selective for CDK4 and CDK6”.
